For three compounds, MIC, zone of inhibition and PI results are on record in ChEMBL document CHEMBL2417483, “Synthesis of thiosemicarbazones derived from N-(4-hippuric acid)thiosemicarbazide and different carbonyl compounds as antimicrobial agents” (2013).

In brackets after ≈: the same amount, converted by molar mass.

Test [1] relates to Priestia megaterium. Nature of the test: Bacteriostatic activity against Bacillus megaterium ATCC 9885 after 24 hrs by two-fold serial dilution assay. Format: functional. Conditions: ATCC 9885, 24 h.
The test system of test [2] is Pseudomonas aeruginosa. In words: Antibacterial activity against Pseudomonas aeruginosa ATCC 27953 assessed as growth inhibition at 1 mg/mL after 24 hrs by agar well diffusion assay. Format: functional. The settings on record: ATCC 27953, 24 h, read-out: DIZ.
Test [3] has as its system Escherichia coli. Nature of the test: Antibacterial activity against Escherichia coli ATCC 25922 assessed as growth inhibition at 1 mg/mL after 24 hrs by agar well diffusion assay. The settings on record: ATCC 25922, 24 h, read-out: DIZ. Format: functional.
Test [4] has as its system Staphylococcus aureus. In words: Bacteriostatic activity against Staphylococcus aureus ATCC 29213 after 24 hrs by two-fold serial dilution assay. Format: functional. Conditions: ATCC 29213, 24 h.
In test [5] the test system is Pseudomonas aeruginosa. In words: Bacteriostatic activity against Pseudomonas aeruginosa ATCC 27953 after 24 hrs by two-fold serial dilution assay. Format: functional. Conditions: ATCC 27953, 24 h.
In test [6] the test system is Saccharomyces cerevisiae. In words: Fungistatic activity against Saccharomyces cerevisiae after 24 hrs by two-fold serial dilution assay. Format: functional.
Test [7] relates to Escherichia coli. In words: Potency index, ratio of ciprofloxacin MIC to compound MIC for Escherichia coli ATCC 25922. Format: functional.
Test [8] concerns Escherichia coli. Nature of the test: Bacteriostatic activity against Escherichia coli ATCC 25922 after 24 hrs by two-fold serial dilution assay. The settings on record: ATCC 25922, 24 h. Format: functional.
The test system of test [9] is Micrococcus luteus. In words: Antibacterial activity against Sarcina luteus assessed as growth inhibition at 1 mg/mL after 24 hrs by agar well diffusion assay. Format: functional. The settings on record: read-out: DIZ.
In test [10] the test system is Pseudomonas aeruginosa. In words: Potency index, ratio of ciprofloxacin MIC to compound MIC for Pseudomonas aeruginosa ATCC 27953. Format: functional.
Test [11] concerns Staphylococcus aureus. Nature of the test: Antibacterial activity against Staphylococcus aureus ATCC 29213 assessed as growth inhibition at 1 mg/mL after 24 hrs by agar well diffusion assay. Format: functional. Conditions: ATCC 29213, 24 h, read-out: DIZ.
Test [12] has as its system Klebsiella pneumoniae. Nature of the test: Bacteriostatic activity against Klebsiella pneumoniae ATCC 13883 after 24 hrs by two-fold serial dilution assay. Format: functional. Conditions: ATCC 13883, 24 h.
Test [13] deals with Micrococcus luteus. In words: Potency index, ratio of ciprofloxacin MIC to compound MIC for Sarcina luteus. Format: functional.
The subject of test [14] is Candida albicans. In words: Antifungal activity against Candida albicans NRRLY 477 assessed as growth inhibition at 1 mg/mL after 24 hrs by agar well diffusion assay. Format: functional. Conditions: NRRLY 477, 24 h, read-out: DIZ.
Test [15] has as its system Bacillus spizizenii. Nature of the test: Bacteriostatic activity against Bacillus subtilis ATCC 6633 after 24 hrs by two-fold serial dilution assay. Format: functional. The settings on record: ATCC 6633, 24 h.
Test [16] relates to Bacillus spizizenii. In words: Antibacterial activity against Bacillus subtilis ATCC 6633 assessed as growth inhibition at 1 mg/mL after 24 hrs by agar well diffusion assay. Conditions: ATCC 6633, 24 h, read-out: DIZ. Format: functional.
The test system of test [17] is Priestia megaterium. In words: Antibacterial activity against Bacillus megaterium ATCC 9885 assessed as growth inhibition at 1 mg/mL after 24 hrs by agar well diffusion assay. Format: functional. Conditions: ATCC 9885, 24 h, read-out: DIZ.
The test system of test [18] is Candida albicans. In words: Fungistatic activity against Candida albicans NRRLY 477 after 24 hrs by two-fold serial dilution assay. Conditions: NRRLY 477, 24 h. Format: functional.
The test system of test [19] is Klebsiella pneumoniae. In words: Potency index, ratio of ciprofloxacin MIC to compound MIC for Klebsiella pneumoniae ATCC 13883. Format: functional.
The test system of test [20] is Proteus vulgaris. In words: Bacteriostatic activity against Proteus vulgaris after 24 hrs by two-fold serial dilution assay. Format: functional.
The test system of test [21] is Proteus vulgaris. In words: Antibacterial activity against Proteus vulgaris assessed as growth inhibition at 1 mg/mL after 24 hrs by agar well diffusion assay. The settings on record: read-out: DIZ. Format: functional.
Test [22] concerns Proteus vulgaris. In words: Potency index, ratio of ciprofloxacin MIC to compound MIC for Proteus vulgaris. Format: functional.
The test system of test [23] is Micrococcus luteus. Nature of the test: Bacteriostatic activity against Sarcina luteus after 24 hrs by two-fold serial dilution assay. Format: functional.
Test [24] has as its system Klebsiella pneumoniae. Nature of the test: Antibacterial activity against Klebsiella pneumoniae ATCC 13883 assessed as growth inhibition at 1 mg/mL after 24 hrs by agar well diffusion assay. Format: functional. Conditions: ATCC 13883, 24 h, read-out: DIZ.
The test system of test [25] is Saccharomyces cerevisiae. In words: Antifungal activity against Saccharomyces cerevisiae assessed as growth inhibition at 1 mg/mL after 24 hrs by agar well diffusion assay. Format: functional. Conditions: read-out: DIZ.
In test [26] the test system is Proteus vulgaris. In words: Antibacterial activity against Proteus vulgaris assessed as growth inhibition at 0.5 mg/mL after 24 hrs by agar well diffusion assay. The settings on record: read-out: DIZ. Format: functional.
For test [27], the system named is Klebsiella pneumoniae. In words: microbe, parasite or virus in culture. Conditions: ATCC 13883, 24 h, read-out: DIZ.
Description: Antibacterial activity against Klebsiella pneumoniae ATCC 13883 assessed as growth inhibition at 0.5 mg/mL after 24 hrs by agar well diffusion assay
The test system of test [28] is Pseudomonas aeruginosa. Nature of the test: microbe, parasite or virus in culture. The settings on record: ATCC 27953, 24 h, read-out: DIZ.
Description: Antibacterial activity against Pseudomonas aeruginosa ATCC 27953 assessed as growth inhibition at 0.5 mg/mL after 24 hrs by agar well diffusion assay
The subject of test [29] is Bacillus spizizenii. In words: Antibacterial activity against Bacillus subtilis ATCC 6633 assessed as growth inhibition at 0.5 mg/mL after 24 hrs by agar well diffusion assay. Format: functional. Conditions: ATCC 6633, 24 h, read-out: DIZ.
The test system of test [30] is Staphylococcus aureus. In words: microbe, parasite or virus in culture. Conditions: ATCC 29213, 24 h, read-out: DIZ.
Description: Antibacterial activity against Staphylococcus aureus ATCC 29213 assessed as growth inhibition at 0.5 mg/mL after 24 hrs by agar well diffusion assay
Test [31] has as its system Micrococcus luteus. In words: Antibacterial activity against Sarcina luteus assessed as growth inhibition at 0.5 mg/mL after 24 hrs by agar well diffusion assay. Conditions: read-out: DIZ. Format: functional.
Test [32] relates to Priestia megaterium. In words: Antibacterial activity against Bacillus megaterium ATCC 9885 assessed as growth inhibition at 0.5 mg/mL after 24 hrs by agar well diffusion assay. Format: functional. Conditions: ATCC 9885, 24 h, read-out: DIZ.
The test system of test [33] is Saccharomyces cerevisiae. In words: Antifungal activity against Saccharomyces cerevisiae assessed as growth inhibition at 0.5 mg/mL after 24 hrs by agar well diffusion assay. Conditions: read-out: DIZ. Format: functional.
Test [34] concerns Candida albicans. Nature of the test: Antifungal activity against Candida albicans NRRLY 477 assessed as growth inhibition at 0.5 mg/mL after 24 hrs by agar well diffusion assay. Format: functional. Conditions: NRRLY 477, 24 h, read-out: DIZ.

On to `O=C(O)CNC(=O)c1ccc(NC(=S)N/N=C2/CCc3ccccc32)cc1`, for which the minimum inhibitory concentration (MIC) against Priestia megaterium [1] was found to be 50 µg/mL (≈ 131 µM); in the test on Staphylococcus aureus [4], 6.25 µg/mL (≈ 16.3 µM); in the test with Pseudomonas aeruginosa [5], 6.25 µg/mL (≈ 16.3 µM); in the test with Saccharomyces cerevisiae [6], 50 µg/mL (≈ 131 µM); in the test with Escherichia coli [8], 12.5 µg/mL (≈ 32.7 µM); in the test with Klebsiella pneumoniae [12], 12.5 µg/mL (≈ 32.7 µM). The MIC was 25 µg/mL (≈ 65.4 µM) against Bacillus spizizenii [15], 12.5 µg/mL (≈ 32.7 µM) in the test with Candida albicans [18], 12.5 µg/mL (≈ 32.7 µM) in the test on Proteus vulgaris [20] and 12.5 µg/mL (≈ 32.7 µM) against Micrococcus luteus [23]. The zone of inhibition at 1000 µg/mL amounted to 28 mm in the test with Pseudomonas aeruginosa [2]; 25 mm with Escherichia coli [3]; 25 mm in the test with Micrococcus luteus [9]; 28 mm with Staphylococcus aureus [11]; 20 mm in the test on Candida albicans [14]; 18 mm in the test with Bacillus spizizenii [16]. Also, the zone of inhibition at 1000 µg/mL in the test on Priestia megaterium [17] turned out to be 18 mm; in the test on Proteus vulgaris [21], 20 mm; in the test with Klebsiella pneumoniae [24], 28 mm; with Saccharomyces cerevisiae [25] it was 20 mm. The PI with Escherichia coli [7], with Pseudomonas aeruginosa [10], with Micrococcus luteus [13], in the test on Klebsiella pneumoniae [19] and in the test with Proteus vulgaris [22] was 2 each time.
With `O=C(O)c1cn(C2CC2)c2cc(N3CCNCC3)c(F)cc2c1=O` [CIPROFLOXACIN], the zone of inhibition at 500 µg/mL with Proteus vulgaris [26] stood at 23 mm; in the test with Klebsiella pneumoniae [27], 25 mm; in the test on Pseudomonas aeruginosa [28], 24 mm; in the test with Bacillus spizizenii [29], 22 mm; with Staphylococcus aureus [30], 20 mm; in the test with Micrococcus luteus [31], 20 mm. Also, the zone of inhibition at 500 µg/mL with Priestia megaterium [32] came to 24 mm. In addition, the MIC worked out at 6.25 µg/mL (≈ 18.9 µM) in the test on Priestia megaterium [1]; 12.5 µg/mL (≈ 37.7 µM) against Escherichia coli [8]; 12.5 µg/mL (≈ 37.7 µM) against Klebsiella pneumoniae [12]; 6.25 µg/mL (≈ 18.9 µM) in the test with Bacillus spizizenii [15]; 12.5 µg/mL (≈ 37.7 µM) in the test on Proteus vulgaris [20]; 12.5 µg/mL (≈ 37.7 µM) with Micrococcus luteus [23].
As for `CC(=O)N1CCN(c2ccc(OCC3COC(Cn4ccnc4)(c4ccc(Cl)cc4Cl)O3)cc2)CC1` (configuration not stated) [KETOCONAZOLE], the MIC came out at 3.12 µg/mL (≈ 5.87 µM) in the test on Saccharomyces cerevisiae [6] and 6.25 µg/mL (≈ 11.8 µM) in the test on Candida albicans [18]. Moreover, the zone of inhibition at 500 µg/mL in the test on Saccharomyces cerevisiae [33] came out at 23 mm; with Candida albicans [34] it was 22 mm.
